Test results reported in publication PMC5565192, “Larrea tridentata: A novel source for anti-parasitic agents active against Entamoeba histolytica, Giardia lamblia and Naegleria fowleri” (PLoS Neglected Tropical Diseases, 2017).
Like-named read-outs stand apart in the source and are kept apart here.

Columns and labels:
[1] = test system: E. histolytica HM1: IMSS trophozoites; test: Parasite assay, CellTiter-Glo EC50 dose response, E. histolytica trophozoites; assay type: cell-based, Entamoeba histolytica; conditions: for EC50: 48 h
Description: (§1) Trophozoites of E. histolytica HM1: IMSS and G. lamblia WB strains were axenically maintained in TYI-S-33 medium supplemented with penicillin (100 U/ml), streptomycin (100 μg/ml). Trophozoites of N. fowleri strain KUL were axenically cultured in Nelson’s medium supplemented with 10% FBS at 37°C [45]. All experiments were performed using trophozoites harvested during the logarithmic phase of growth. Four solvent partitioned fractions of an aqueous methanolic extract of L. tridentata and compounds 1–9 were screened for activity against E. histolytica, G. lamblia, and N. fowleri. For primary screening, the positive control for E. histolytica and G. lamblia was 5 μg/mL of metronidazole (Sigma-Aldrich) and 46 μg/mL of amphotericin B for N. fowleri (Sigma-Aldrich). Test samples were diluted to 10 mg/mL of extracts, HPLC fractions, and pure compounds in DMSO. Finally, 0.5 μL of diluted sample was transferred to white, solid bottom tissue culture 96-well plates (E&K Scientific) followed by addition of 99.5 μL trophozoites (5,000 E. histolytica and G. lamblia, and 10,000 N. fowleri) in TYI-S-33 medium or Nelson’s medium. The final concentration for test compounds was 50 μg/mL and 0.5% DMSO, which was the negative control and compound vehicle that we have shown has no effect the growth rate of trophozoites. Assay plates were incubated for 48 h at 37°C. E. histolytica and G. lamblia plates were kept in the GasPak EZ Anaerobe Gas Generating Pouch System (VWR) to maintain anaerobic condition throughout the incubation period. Screening was performed in duplicate using the CellTiter-Glo assay (Promega) and luminescence was measured using an EnVision plate reader (PerkinElmer).
(§2) The antiparasitic activity of 1–6 and 9 were confirmed by EC50 dose response experiments, using the CellTiter-Glo assay, conducted in triplicate over a concentration range from 5-to-700 μM against trophozoites (Table 3). Miltefosine and metronidazole, current drugs for the treatment of PAM and amebiasis and giardiasis were also tested in triplicate as positive controls for EC50 determination (Table 3). Dose response curves including standard deviation (SD) calculation were processed using GraphPad Prism software 5.0. Percent inhibition relative to maximum and minimum reference signal controls was calculated using the formula: % Inhibition = [(mean of Maximum Signal Reference Control—Experimental Value)/(mean of Maximum Signal Reference Control—mean of Minimum Signal Reference Control)] × 100.

[2] = test system: G. lamblia WB trophozoites; test: Parasite assay, CellTiter-Glo EC50 dose response, G. lamblia trophozoites; assay type: cell-based, Giardia lamblia; conditions: for loss of activity compared to 3, G. lamblia: SAR comparison with compound 3
Description: as §1, §2

[3] = test system: N. fowleri strain KUL trophozoites; test: Parasite assay, CellTiter-Glo EC50 dose response, N. fowleri trophozoites; assay type: cell-based, Naegleria fowleri
Description: as §1, §2

[4] = test system: HUVEC-TERT2 cell line; test: HUVEC cell cytotoxicity (CellTiter-Glo, 48 h); assay type: cell-based, human; conditions: for fold less toxic to human cells compared to N. fowleri: HUVEC EC50 versus N. fowleri EC50, P<0.0001; for EC50: Homo sapiens, HUVEC, 48 h, CellTiter-Glo, read-out: EC50 inhibition of HUVEC cell viability
Description: The HUVEC-TERT2 cell line was purchased from Evercyte GmbH (Vienna, Austria) and cultured and maintained in endothelial cell basal medium (Lonza) as described previously. Briefly, cells were seeded into a white 384-well solid bottom plate (Nunc, ThermoFisher) at a density of 1000 cells/well in 39 μL of media using a Janus liquid handler (PerkinElmer). Serial dilutions using 1 μL of compound 1 and 2 at varying concentrations were dispensed into each well in triplicate. After 48 h incubation, 40 μL of CellTiter-Glo reagent (Promega) was added into each well. The contents were mixed for 2 min on a microplate shaker to induce cell lysis and further incubated at room temperature for 10 min to stabilize the luminescent signal. Luminescence was measured with an EnVision plate reader (PerkinElmer) and %inhibition calculations were performed using the following formula for single-point normalization: %Inhibition = (1-Raw Sample Value/Mean of DMSO Signal Reference Value) × 100. Dose response curves including EC50 calculations were processed using GraphPad Prism software.

[5] = test system: N. fowleri cysteine protease; test: Cysteine protease activity assay in N. fowleri crude lysate (Z-Phe-Arg-AMC); assay type: biochemical, Naegleria fowleri; conditions: at 1.875 μM, total crude lysate of N. fowleri
Description: To prepare the cell lysate, N. fowleri trophozoites were removed from the culture flask surface by incubating in an ice bath for 10 min, centrifuged at 300 g for 10 min, and washed twice with PBS (pH 7.2). The cells were disrupted by four cycles of freeze thawing in PBS [51]. Protein concentration was quantified by the method of Bradford (Bio-Rad). The activity of the cysteine protease present in the crude extract after incubating in presence and absence of different concentrations of compounds 1 and 2 was assayed by the liberation of the fluorescent leaving group, 7-amino-4-methyl coumarin (AMC), from the peptide substrate Z–Phe–Arg–AMC (40 μM) (where Z is benzyloxycarbonyl, R&D Systems). The assay was performed at 25°C in an automated microtiter plate spectrofluorometer (EnVision, PerkinElmer) with excitation wavelength at 355 nm and emission wavelength at 460 nm. Enzyme samples were added to the reactivation buffer (10 mM Tris, 5 mM EDTA, 50 mM NaCl, pH 7.4, 10 mM DTT), and preincubated for 20 min at 37°C prior to the hydrolysis of substrate. The rate of substrate hydrolysis at ambient temperature was determined from the rate of increase of fluorescence, monitored on a continuously recording spectrofluorometer and measured as RFU/min/μg protein.

[6] = test system: E. histolytica, G. lamblia, and N. fowleri trophozoites; test: Antiparasitic activity, statements for all three pathogens together (CellTiter-Glo); assay type: cell-based; conditions: for antiparasitic activity against the three pathogens (in words): E. histolytica, N. fowleri trophozoites
Description: as §1, §2

[7] = trophozoites, 48 h, minimum n = 3
[8] = trophozoites, 48 h, minimum n = 3, read-out: N. fowleri EC50
[9] = Entamoeba histolytica, trophozoites, minimum n = 3, read-out: E. histolytica EC50
[10] = Entamoeba histolytica, trophozoites, minimum n = 3, read-out: E. histolytica pEC50 ± SE (converted)
[11] = Giardia duodenalis, trophozoites, 48 h, minimum n = 3, read-out: G. lamblia EC50
[12] = Giardia duodenalis, trophozoites, 48 h, minimum n = 3, read-out: G. lamblia pEC50 ± SE (converted)
[13] = Naegleria fowleri, 48 h, trophozoites, 48 h, minimum n = 3, read-out: N. fowleri EC50
[14] = Naegleria fowleri, 48 h, trophozoites, 48 h, minimum n = 3, read-out: N. fowleri pEC50 ± SE (converted)
[15] = Entamoeba histolytica, read-out: E. histolytica EC50
[16] = Giardia duodenalis, 48 h, read-out: G. lamblia EC50
[17] = Naegleria fowleri, 48 h, read-out: N. fowleri EC50

Row | Molecule | EC50 [1, 9] [µM] | EC50 [1, 10] [µM] | EC50 [2, 11] [µM] | EC50 [2, 12] [µM] | EC50 [3, 13] [µM] | EC50 [3, 14] [µM] | antiparasitic activity against the three pathogens (in words) [6] | also measured
1 | 3-Methoxy-6, 7, 4’-trihydroxyflavonol [Compound 9] |  |  |  |  |  |  |  | EC50 ([1]; trophozoites, minimum n = 3, read-out: E. histolytica EC50): > 166 µM; G. lamblia pEC50 ± SE [2, 7]: 3.8 ± 0.02; EC50 ([2]; trophozoites, 48 h, minimum n = 3, read-out: G. lamblia EC50): 153 µM; N. fowleri pEC50 ± SE [3, 7]: 3.6 ± 0.02; EC50 [3, 8]: 235 µM
2 | C[C@H](Cc1ccc(O)c(O)c1)[C@@H](C)Cc1ccc(O)c(O)c1 [Compound 1, nordihydroguairetic acid] | 103 | 100 | 36 | 39.8 | 36 | 39.8 |  | EC50 [3, 8]: 37 µM; fold less toxic to human cells compared to N. fowleri [4]: 2.4 fold; EC50 [4]: 86 µM; inhibition of cysteine protease activity [5]: ~50%
3 | COc1cc(C[C@@H](C)[C@@H](C)Cc2ccc(O)c(O)c2)ccc1O [Compound 2, 3’-O-methylnordihydroguairetic acid] | 171 | 158 | 38 | 39.8 | 38 | 39.8 |  | fold less toxic to human cells compared to N. fowleri [4]: 1.6 fold; EC50 [4]: 59 µM; inhibition of cysteine protease activity [5]: ~50%
4 | C[C@H]1[C@H](c2ccc(O)cc2)c2cc(O)c(O)cc2C[C@H]1C [Compound 3, Nor-3’-demethoxyisoguaiacin] | 94 | 100 | 49 | 50.1 | 73 | 79.4 |  | 
5 | COc1cc([C@@H]2c3cc(O)c(O)cc3C[C@@H](C)[C@H]2C)ccc1O [Compound 4, Nor-isoguaicin] | 83 | 79.4 | 74 | 79.4 | 75 | 79.4 |  | loss of activity compared to 3, G. lamblia [2]: ~ 2 fold; EC50 ([6]; span over E. histolytica, N. fowleri, read-out: EC50 values against all three pathogens): 74 to 83 µM
6 | COc1cc2c(cc1O)C[C@@H](C)[C@@H](C)[C@@H]2c1ccc(O)cc1 [Compound 5, 3’-Demethoxyisoguaiacin] | 236 | 251 | 188 | 200 | 155 | 158 | comparatively weak activity | loss of activity compared to 3, E. histolytica ([1]; SAR comparison with compound 3): ~ 3 fold; loss of activity compared to 3, G. lamblia [2]: 4 fold; loss of activity compared to 3, N. fowleri ([3]; SAR comparison with compound 3): ~ 2 fold
7 | C[C@H]1[C@H](c2ccc(O)c(O)c2)c2cc(O)c(O)cc2C[C@H]1C [Compound 6, 6,3'-Di-O-demethylisoguaiacin] | 146 | 158 | 96 | 100 | 150 | 158 | comparatively weak activity | 
8 | C[C@@H]1[C@@H](C)[C@H](c2ccc(O)c(O)c2)O[C@H]1c1ccc(O)cc1 [Compound 7, 3-hydroxy-4-epi-larreatricin] |  |  |  |  |  |  | no antiparasitic activity | EC50 [1, 15]: > 166 µM; EC50 [2, 16]: > 166 µM; EC50 [3, 17]: > 166 µM
9 | C[C@@H]1[C@H](C)[C@H](c2ccc(O)cc2)O[C@H]1c1ccc(O)c(O)c1 [Compound 8, (7R, 7’R)-7, 7’-bis(4’, 3,4-trihydroxyphenyl)-(8R, 8’S)-8, 8’-dimethyltetrahydrofuran] |  |  |  |  |  |  | no antiparasitic activity | EC50 [1, 15]: > 166 µM; EC50 [2, 16]: > 166 µM; EC50 [3, 17]: > 166 µM
10 | Cc1ncc([N+](=O)[O-])n1CCO [Metronidazole, reference compound] | 5 | 5.01 | 6.4 | 6.31 |  |  |  | 
11 | CCCCCCCCCCCCCCCCOP(=O)([O-])OCC[N+](C)(C)C [Miltefosine, reference compound] |  |  |  |  | 54.5 | 50.1 |  | 
